Reference: patent US20080045584A1, “Use of Docetaxel for Treating Hepatocellular Carcinoma” (priority 1999, published 2008)

Experiments:
Hepa 1-6 cells = experiment: Propidium iodide (PI) exclusion assay, flow cytometry; format: cell-based, murine
Protocol: Cells were grown on 5-cm^2 flasks (CORNING) and treated with paclitaxel and docetaxel as set out above. Propidium iodide (10 μg/ml) was then added for 15 minutes incubation at 37° C. Then, medium was collected prior to harvest of the adherent cells. Both suspended and attached cells were collected and resuspended with 500 μl PBS for flow cytometry analysis as set out below. Debris signals were removed by FSC-SSC gating.
(§1) Cells (10000) were analyzed on a Becton Dickinson FACS Calibur flow cytometer using an argon-ion laser (15 mWatt) with incident beam at 488 nm. For PI exclusion assay, red fluorescence was collected through a 585 nm filter and the cell debris signals were removed by FSC-SSC gating. Data were acquired and analyzed using FACS/CELL Quest software on a Power Macintosh 7600/120 computer. Apoptotic cells and cells at specific cycle phases were determined by ModFit LT software.
Data are mean±standard error of mean from duplicated sample of at least three independent experiments. Cells were treated with drugs for 24-72 hours, and membrane permeability was measured by flowcytometric analysis of propidium exclusion in viable hepatoma cells. Data are the percentage of cells with intact cell membrane as compared to control

Hep G2 cells = experiment: Flow cytometric analysis of DNA content (cell cycle, sub-G0/G1); format: cell-based, human; settings: for apoptotic percentages (sub-G0/G1 cells): 0.001 μM
Protocol: (§2) Lysing buffer (0.5% Triton X-100, 0.2 μg/ml Na2EDTA.2H2O, and 1% bovine serum albumin in PBS) was added to the cell pellets which were then left on ice for 15 minutes. 100% methanol pre-cooled to −20° C. was then added to the mixture, which was then centrifuged at 300×g for 5 minutes. The supernatant was discarded and the cell pellet was washed with PBS. The washed pellet was stained with a DNA staining solution (50 μg/ml propidium iodide, and 5 kunitz/ml of RNase A) for 30 minutes at 4° C. in the dark. The DNA content of each cell was measured using a Becton Dickinson FACS Calibur flow cytometer as set out below.
as §1
(§3) Table 1 gives figures for cell membrane permeability of the hepatoma cells, following treatment with paclitaxel and docetaxel. Table 2 details the percentage of apoptotic (sub-G0/G1) cells found after paclitaxel and docetaxel treatment.

Hep 3B cells = experiment: as above; format: cell-based, human
Protocol: as §2, §1, §3

HA22T/VGH cells = experiment: as above; format: cell-based, human
Protocol: as §2, §1, §3

## CC(=O)O[C@@]12CO[C@@H]1C[C@H](O)[C@@]1(C)C(=O)[C@H](O)C3=C(C)[C@@H](OC(=O)[C@H](O)[C@@H](NC(=O)OC(C)(C)C)c4ccccc4)C[C@@](O)([C@@H](OC(=O)c4ccccc4)[C@H]21)C3(C)C [Docetaxel]
Hepa 1-6 cells; Hepa 1-6, 24 hrs, 0.01 μM
  percentage of cells with intact cell membrane as compared to control: 94.45 ± 1.9%
Hepa 1-6 cells; Hepa 1-6, 24 hrs, 0.1 μM
  percentage of cells with intact cell membrane as compared to control: 83.35 ± 7.2%
Hepa 1-6 cells; Hepa 1-6, 24 hrs, 1 μM
  percentage of cells with intact cell membrane as compared to control: 81.88 ± 8.7%
Hepa 1-6 cells; Hepa 1-6, 72 hrs, 0.01 μM
  percentage of cells with intact cell membrane as compared to control: 77.18 ± 1.4%
Hepa 1-6 cells; Hepa 1-6, 72 hrs, 0.1 μM
  percentage of cells with intact cell membrane as compared to control: 43.94 ± 3.4%
Hepa 1-6 cells; Hepa 1-6, 72 hrs, 1 μM
  percentage of cells with intact cell membrane as compared to control: 38.90 ± 4.2%
Hep G2 cells; Hep G2, 24 hours
  apoptotic percentages (sub-G0/G1 cells): 31.02%
Hep G2 cells; Hep G2, 24 hrs, 0.01 mM (text: μM)
  % of apoptotic (sub-G0/G1) cells: 45.24%
Hep G2 cells; Hep G2, 24 hrs, 0.1 mM (text: μM)
  % of apoptotic (sub-G0/G1) cells: 38.77%
Hep G2 cells; Hep G2, 24 hrs, 1 mM (text: μM)
  % of apoptotic (sub-G0/G1) cells: 28.33%
Hep G2 cells; Hep G2, 72 hours
  apoptotic percentages (sub-G0/G1 cells): 21.92%
Hep G2 cells; Hep G2, 72 hrs, 0.01 mM (text: μM)
  % of apoptotic (sub-G0/G1) cells: 42.45%
Hep G2 cells; Hep G2, 72 hrs, 0.1 mM (text: μM)
  % of apoptotic (sub-G0/G1) cells: 42.44%
Hep G2 cells; Hep G2, 72 hrs, 1 mM (text: μM)
  % of apoptotic (sub-G0/G1) cells: 56.66%
Hep 3B cells; 24 hrs, 0.01 mM (text: μM)
  % of apoptotic (sub-G0/G1) cells: 59.14%
Hep 3B cells; 24 hrs, 0.1 mM (table head; text: μM)
  % of apoptotic (sub-G0/G1) cells: 58.67%
Hep 3B cells; 24 hrs, 0.1 mM (table head; text: μM), listed as docetaxel
  % of apoptotic (sub-G0/G1) cells: 58.69%
Hep 3B cells; 24 hrs, 1 mM (text: μM)
  % of apoptotic (sub-G0/G1) cells: 65.74%
Hep 3B cells; 72 hrs, 0.01 mM (text: μM)
  % of apoptotic (sub-G0/G1) cells: 64.12%
Hep 3B cells; 72 hrs, 0.1 mM (text: μM)
  % of apoptotic (sub-G0/G1) cells: 81.66%
Hep 3B cells; 72 hrs, 1 mM (text: μM)
  % of apoptotic (sub-G0/G1) cells: 79.33%
HA22T/VGH cells; 24 hrs, 0.01 mM (text: μM)
  % of apoptotic (sub-G0/G1) cells: 41.75%
HA22T/VGH cells; 24 hrs, 0.1 mM (text: μM)
  % of apoptotic (sub-G0/G1) cells: 18.61%
HA22T/VGH cells; 24 hrs, 1 mM (text: μM)
  % of apoptotic (sub-G0/G1) cells: 22.94%
HA22T/VGH cells; 72 hrs, 0.01 mM (text: μM)
  % of apoptotic (sub-G0/G1) cells: 56.64%
HA22T/VGH cells; 72 hrs, 0.1 mM (table head; text: μM)
  % of apoptotic (sub-G0/G1) cells: 58.61%
HA22T/VGH cells; 72 hrs, 1 mM (table head; text: μM)
  % of apoptotic (sub-G0/G1) cells: 60.98%
